In patent US8153819B2, “Fungicidal mixtures comprising substituted 1-methylpyrazol-4-ylcarboxanilides” (BASF SE, priority 2005, dated 2012):

Columns and labels:
[1] = system: Pyrenophora [syn. Drechslera] teres; experiment: Activity against net blotch of barley caused by Pyrenophora teres, 1 day protective application; assay type: in vivo; details: barley seedlings sprayed 24 h before inoculation, read after 6 days, efficacy in % of untreated control (Abbot)
Protocol: (§1) The active compounds, separately or jointly, were prepared as a stock solution comprising 25 mg of active compound which was made up to 10 ml using a mixture of acetone and/or dimethyl sulfoxide and the emulsifier Uniperol® EL (wetting agent having an emulsifying and dispersing action based on ethoxylated alkylphenols) in a ratio by volume of solvent/emulsifier of 99:1. The mixture was then made up to 100 ml with water. This stock solution was diluted with the solvent/emulsifier/water mixture described to give the concentration of active compound stated below.
(§2) As an alternative, the active compounds epoxiconazole, triticonazole and pyraclostrobin were used as commercially available ready-to-use formulation and diluted to the specified active compound concentration with water.
(§3) The visually determined percentages of infected leaf areas were converted into efficacies in % of the untreated control:
The efficacy (E) is calculated as follows using Abbot's formula: E=(1−α/β)·100 α corresponds to the fungicidal infection of the treated plants in % and β corresponds to the fungicidal infection of the untreated (control) plants in % […]
(§4) The expected efficacies of active compound combinations were determined using Colby's formula (Colby, S. R. “Calculating synergistic and antagonistic responses of herbicide combinations”, Weeds, 15, 20-22, 1967) and compared with the observed efficacies. […]

Puccinia recondita = experiment: Curative activity against brown rust of wheat caused by Puccinia recondita; assay type: in vivo; details: curative spray 1 day after inoculation, read after 7 days
Protocol: as §1, §2, §3
(§5) The efficacy (E) is calculated as follows using Abbot's formula: E=(1−α/β)·100 α corresponds to the fungicidal infection of the treated plants in % and β corresponds to the fungicidal infection of the untreated (control) plants in %
(§6) An efficacy of 0 means that the infection level of the treated plants corresponds to that of the untreated control plants; an efficacy of 100 means that the treated plants are not infected.
(§7) The expected efficacies of active compound combinations were determined using Colby's formula (Colby, S. R. “Calculating synergistic and antagonistic responses of herbicide combinations”, Weeds, 15, 20-22, 1967) and compared with the observed efficacies.
(§8) Colby's formula: E=x+y−x·y/100 • E expected efficacy, expressed in % of the untreated control, when using the mixture of the active compounds A and B at the concentrations a and b; • x efficacy, expressed in % of the untreated control, when using the active compound A at the concentration a; • y efficacy, expressed in % of the untreated control, when using the active compound B at the concentration b.
Leaves of potted wheat seedlings of the cultivar “Kanzler” were inoculated with a spore suspension of brown rust (Puccinia recondita). The pots were then placed in a chamber with high atmospheric humidity (90 to 95%) and 20 to 22° C. for 24 hours. During this time, the spores germinated and the germ tubes penetrated into the leaf tissue. The next day, the infected plants were sprayed to runoff point with the above-described active compound solution having the active compound concentration stated below. After the spray coating had dried on, the test plants were cultivated in a greenhouse at temperatures between 20 and 22° C. and 65 to 70% relative atmospheric humidity for 7 days. The extent of the rust fungal development on the leaves was then determined.

Botrytis cinerea = experiment: Activity against gray mold on bell pepper leaves caused by Botrytis cinerea, 1 day protective application; assay type: in vivo; details: 1 day protective spray, read after 5 days
Protocol: as §1, §2, §3, §5, §6, §7, §8
Bell pepper seedlings of the cultivar “Neusiedler Ideal Elite” were, after 2-3 leaves were well developed, sprayed to runoff point with an aqueous suspension in the active compound concentration specified below. The next day, the treated plants were inoculated with a spore suspension of Botrytis cinerea which contained 1.7×10^6 spores/ml in a 2% strength aqueous biomalt solution. The test plants were then placed in a climatized chamber at 22 to 24° C., darkness and high atmospheric humidity. After 5 days, the extent of the fungal infection on the leaves could be determined visually in %.

Alternaria solani = experiment: Activity against early blight of tomato caused by Alternaria solani (protective spray); assay type: in vivo; details: tomato leaves sprayed 1 day before infection, read after 5 days, efficacy in % of untreated control (Abbot)
Protocol: as §1, §2, §3, §5, §6, §4
Leaves of potted tomato plants were sprayed to runoff point with an aqueous suspension having the active compound concentration stated below. […] After 5 days, the disease on the untreated but infected control plants had developed to such an extent that the infection could be determined visually in %.

Compound: Fc1ccc([C@]2(Cn3cncn3)O[C@H]2c2ccccc2Cl)cc1 (racemic) [epoxiconazole, (2RS,3SR)-1-[3-(2-chlorophenyl)-2,3-epoxy-2-(4-fluorophenyl)propyl]-1H-1,2,4-triazole, reference compound]
- Observed activity (% infection) ([1]; 0.063 mg/l): 0%
- Observed activity (% infection) (Puccinia recondita; 0.063 mg/l): 0%

Compound: CC1CCN(c2c(-c3c(F)cc(F)cc3F)c(Cl)nc3ncnn23)CC1 [5-chloro-7-(4-methyl-piperidin-1-yl)-6-(2,4,6-trifluorophenyl)-[1,2,4]tri-azolo[1,5-a]pyrimidine]
- Observed activity (% infection) (Puccinia recondita; 4 mg/l): 40%

Compound: Cn1cc(C(=O)Nc2ccccc2-c2cc(F)c(F)c(F)c2)c(C(F)F)n1 [No. Id.344, N-(3′,4′,5′-trifluorobiphenyl-2-yl)-3-difluoromethyl-1-methyl-1H-pyrazole-4-carboxamide]
- Observed activity (% infection) ([1]; 0.25 mg/l): 67%
- Observed activity (% infection) (Puccinia recondita; 1 mg/l): 0%
- Observed activity (% infection) (Botrytis cinerea; 1 mg/l): 40%

Compound: Cn1cc(C(=O)Nc2ccccc2-c2cc(F)c(F)c(F)c2)c(CF)n1 [No. Ig. 344, N-(3′,4′,5′-trifluorobiphenyl-2-yl)-3-fluoromethyl-1-methyl-1H-pyrazole-4-carboxamide]
- melting point: 152 to 156 °C

Compound: Cn1nc(Cl)c(C(=O)Nc2ccccc2-c2cc(F)c(F)c(F)c2)c1C(F)F [No. Ih. 344, N-(3′,4′,5′-trifluorobiphenyl-2-yl)-3-chlorodifluoromethyl-1-methyl-1H-pyrazole-4-carboxamide]
- melting point: 158 to 161 °C

Compound: Cn1nc(Cl)c(C(=O)Nc2ccccc2-c2cc(F)c(F)c(F)c2)c1CF [No. Ij. 344, N-(3′,4′,5′-trifluorobiphenyl-2-yl)-3-chlorofluoromethyl-1-methyl-1H-pyrazole-4-carboxamide]
- melting point: 154 to 157 °C

Compound: N#Cc1c(Cl)c(Cl)c(Cl)c(C#N)c1Cl [chlorthalonil, 2,4,5,6-tetrachloroisophthalonitrile, reference compound]
- Observed activity (% infection) (Alternaria solani; 63 mg/l): 0%
- Observed activity (% infection) (Puccinia recondita; 16 mg/l): 0%

Compound: COc1ccc(C(=CC(=O)N2CCOCC2)c2ccc(Cl)cc2)cc1OC [dimethomorph]
- Observed activity (% infection) (Botrytis cinerea; 4 mg/l): 0%
- Observed activity (% infection) (Botrytis cinerea; 16 mg/l): 0%
- Observed activity (% infection) (Botrytis cinerea; 63 mg/l): 0%

Compound: COc1cc(C)c(C(=O)c2c(OC)ccc(Br)c2C)c(OC)c1OC [metrafenone]
- Observed activity (% infection) (Botrytis cinerea; 4 mg/l): 0%
- Observed activity (% infection) (Botrytis cinerea; 16 mg/l): 0%
- Observed activity (% infection) (Botrytis cinerea; 63 mg/l): 0%

Compound: COC(=O)N(OC)c1ccccc1COc1ccn(-c2ccc(Cl)cc2)n1 [pyraclostrobin, methyl N-{2-[1-(4-chlorophenyl)-1H-pyrazol-3-yloxymethyl]phenyl}(N-methoxy)carbamate, reference compound]
- Observed activity (% infection) (Alternaria solani; 4 mg/l): 50%
- Observed activity (% infection) (Puccinia recondita; 1 mg/l): 0%

Compound: CC1(C)CCC(=Cc2ccc(Cl)cc2)C1(O)Cn1cncn1 (centres unmarked) [triticonazole]
- Observed activity (% infection) (Puccinia recondita; 1 mg/l): 0%
- Observed activity (% infection) (Botrytis cinerea; 4 mg/l): 0%

Compound: zinc ammoniate ethylenebis(dithiocarbamate) [metiram, reference compound]
- Observed activity (% infection) (Alternaria solani; 63 mg/l): 0%
- Observed activity (% infection) (Botrytis cinerea; 16 mg/l): 0%
